Tests used:
[1] = target: T1, Aurora kinase C (Homo sapiens) (UniProt Q9UQB9); test: Selectivity interaction (Kinase panel (Z-LYTE Assay)) EUB0001632a AURKC; details: at 10 µM
T1 sequence (whole entry): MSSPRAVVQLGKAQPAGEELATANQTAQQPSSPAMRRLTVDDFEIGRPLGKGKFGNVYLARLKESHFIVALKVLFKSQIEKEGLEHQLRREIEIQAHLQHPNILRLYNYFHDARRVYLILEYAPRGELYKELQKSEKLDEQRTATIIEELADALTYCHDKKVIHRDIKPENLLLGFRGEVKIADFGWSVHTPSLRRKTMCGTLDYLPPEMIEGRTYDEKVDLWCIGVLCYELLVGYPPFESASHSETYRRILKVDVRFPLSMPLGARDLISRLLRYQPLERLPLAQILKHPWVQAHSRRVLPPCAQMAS

[2] = target: Phosphatidylinositol 4-phosphate 3-kinase C2 domain-containing subunit beta (Homo sapiens) (UniProt O00750); test: Selectivity interaction (KinomeScan (DiscoverX)) EUB0000607a PIK3C2B; details: at 10 µM
[3] = target: Calcium/calmodulin-dependent protein kinase type 1D (Homo sapiens) (UniProt Q8IU85); test: Selectivity interaction (ActivX KiNativ screen (kinase selectivity in THP-1 cell lysates)) EUB0000639a CAMK1D; type: subcellular; details: lysate
[4] = target: T2, Serine/threonine-protein kinase TAO2 (Homo sapiens) (UniProt Q9UL54); test: Selectivity interaction (Ambit KINOMEscan and KiNATiv profiling in Jurkat cells) EUB0000090b TAOK2; type: cell-based; details: at 1 µM
T2 sequence (whole entry): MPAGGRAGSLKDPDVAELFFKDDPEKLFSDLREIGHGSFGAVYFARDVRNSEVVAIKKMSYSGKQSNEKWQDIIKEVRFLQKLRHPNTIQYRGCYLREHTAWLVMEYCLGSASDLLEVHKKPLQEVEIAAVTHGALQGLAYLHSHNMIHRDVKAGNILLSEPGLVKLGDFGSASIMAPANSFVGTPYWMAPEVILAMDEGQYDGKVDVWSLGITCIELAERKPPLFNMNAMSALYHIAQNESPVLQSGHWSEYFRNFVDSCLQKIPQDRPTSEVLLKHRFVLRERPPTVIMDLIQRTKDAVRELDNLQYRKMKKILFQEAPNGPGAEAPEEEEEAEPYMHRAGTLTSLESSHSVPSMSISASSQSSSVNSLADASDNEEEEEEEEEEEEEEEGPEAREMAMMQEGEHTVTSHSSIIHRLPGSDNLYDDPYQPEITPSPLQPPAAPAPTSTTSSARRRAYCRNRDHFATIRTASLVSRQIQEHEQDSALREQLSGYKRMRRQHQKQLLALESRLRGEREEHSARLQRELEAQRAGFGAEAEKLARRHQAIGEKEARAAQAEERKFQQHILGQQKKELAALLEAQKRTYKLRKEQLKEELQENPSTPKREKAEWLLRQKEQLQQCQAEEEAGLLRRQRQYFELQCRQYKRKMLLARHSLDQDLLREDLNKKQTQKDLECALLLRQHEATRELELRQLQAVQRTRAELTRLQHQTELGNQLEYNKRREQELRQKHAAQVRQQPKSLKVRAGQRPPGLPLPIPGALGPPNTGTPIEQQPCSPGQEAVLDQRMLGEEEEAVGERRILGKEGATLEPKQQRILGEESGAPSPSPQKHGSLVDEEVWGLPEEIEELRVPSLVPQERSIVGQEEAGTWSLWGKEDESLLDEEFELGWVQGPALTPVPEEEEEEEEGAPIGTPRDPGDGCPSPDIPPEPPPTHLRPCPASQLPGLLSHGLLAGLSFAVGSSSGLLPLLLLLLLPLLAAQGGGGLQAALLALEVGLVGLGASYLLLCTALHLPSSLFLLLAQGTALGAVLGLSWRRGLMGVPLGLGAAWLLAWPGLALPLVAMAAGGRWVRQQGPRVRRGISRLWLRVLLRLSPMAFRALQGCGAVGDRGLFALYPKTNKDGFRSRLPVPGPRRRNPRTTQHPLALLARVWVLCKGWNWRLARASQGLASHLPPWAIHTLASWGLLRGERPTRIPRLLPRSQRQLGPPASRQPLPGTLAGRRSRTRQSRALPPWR

[5] = target: T3, Serine/threonine-protein kinase Sgk2 (Homo sapiens) (UniProt Q9HBY8); test: Selectivity interaction (Ambit KINOMEscan and KiNATiv profiling in Jurkat cells) EUB0000090b SGK2; type: cell-based; details: at 1 µM
T3 sequence (whole entry): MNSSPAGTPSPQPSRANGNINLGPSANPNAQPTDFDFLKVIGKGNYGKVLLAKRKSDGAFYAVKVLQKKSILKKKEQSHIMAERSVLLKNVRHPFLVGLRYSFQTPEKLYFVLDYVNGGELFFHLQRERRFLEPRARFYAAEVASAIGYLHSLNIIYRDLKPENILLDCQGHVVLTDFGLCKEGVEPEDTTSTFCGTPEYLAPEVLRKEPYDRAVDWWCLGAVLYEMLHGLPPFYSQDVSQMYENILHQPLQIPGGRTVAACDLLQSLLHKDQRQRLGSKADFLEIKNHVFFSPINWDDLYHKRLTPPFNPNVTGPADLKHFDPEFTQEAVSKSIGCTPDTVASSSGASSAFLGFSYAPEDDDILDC

[6] = target: Cyclin-dependent kinase 4/cyclin D1 (Homo sapiens, UniProt P11802)
[7] = target: Insulin receptor-related protein (Homo sapiens) (UniProt P14616); test: Selectivity interaction (KinomeScan (DiscoverX)) EUB0000092b INSRR; details: at 10 µM
[8] = target: Mitogen-activated protein kinase 14 (Homo sapiens, UniProt Q16539); test: Selectivity interaction (Enzyme panel (AstraZeneca, AlphaScreen, functional assay)) EUB0000621a MAPK14
[9] = target: Maternal embryonic leucine zipper kinase (Homo sapiens) (UniProt Q14680); test: Selectivity interaction (KinomeScan (DiscoverX)) EUB0000618a MELK; details: at 10 µM
Maternal embryonic leucine zipper kinase (Homo sapiens), sequence (Q14680 whole entry, looked up): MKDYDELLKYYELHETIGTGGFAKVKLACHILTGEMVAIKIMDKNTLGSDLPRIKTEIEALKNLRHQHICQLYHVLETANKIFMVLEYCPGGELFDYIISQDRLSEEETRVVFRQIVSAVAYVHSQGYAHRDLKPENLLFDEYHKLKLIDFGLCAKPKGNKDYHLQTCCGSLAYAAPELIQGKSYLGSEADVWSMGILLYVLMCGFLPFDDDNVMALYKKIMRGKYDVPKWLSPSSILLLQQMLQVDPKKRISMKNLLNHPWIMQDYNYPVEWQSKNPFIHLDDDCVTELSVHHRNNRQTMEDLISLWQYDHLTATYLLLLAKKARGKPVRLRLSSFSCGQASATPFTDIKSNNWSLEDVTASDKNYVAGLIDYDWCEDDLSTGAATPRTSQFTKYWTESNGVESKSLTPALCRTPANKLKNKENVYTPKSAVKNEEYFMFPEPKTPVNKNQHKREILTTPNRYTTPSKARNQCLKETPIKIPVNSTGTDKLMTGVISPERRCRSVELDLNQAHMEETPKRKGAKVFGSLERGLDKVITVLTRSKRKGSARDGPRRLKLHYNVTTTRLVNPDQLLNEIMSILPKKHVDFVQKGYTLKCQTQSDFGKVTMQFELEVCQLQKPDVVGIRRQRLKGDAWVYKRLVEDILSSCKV

Calcium/calmodulin-dependent protein kinase type 1D (Homo sapiens), sequence (Q8IU85 whole entry, looked up): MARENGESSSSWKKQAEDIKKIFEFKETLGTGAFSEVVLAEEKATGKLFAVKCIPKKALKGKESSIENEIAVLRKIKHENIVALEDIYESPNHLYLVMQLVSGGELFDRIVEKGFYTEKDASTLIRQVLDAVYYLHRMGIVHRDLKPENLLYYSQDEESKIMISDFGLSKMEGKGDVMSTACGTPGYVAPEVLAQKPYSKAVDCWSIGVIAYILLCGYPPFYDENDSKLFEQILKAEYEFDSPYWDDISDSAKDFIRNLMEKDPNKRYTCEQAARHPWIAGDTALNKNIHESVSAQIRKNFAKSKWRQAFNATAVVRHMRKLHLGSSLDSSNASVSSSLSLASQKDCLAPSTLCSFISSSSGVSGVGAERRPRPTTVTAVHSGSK
Phosphatidylinositol 4-phosphate 3-kinase C2 domain-containing subunit beta (Homo sapiens), sequence (O00750 whole entry, the tested form may be a part): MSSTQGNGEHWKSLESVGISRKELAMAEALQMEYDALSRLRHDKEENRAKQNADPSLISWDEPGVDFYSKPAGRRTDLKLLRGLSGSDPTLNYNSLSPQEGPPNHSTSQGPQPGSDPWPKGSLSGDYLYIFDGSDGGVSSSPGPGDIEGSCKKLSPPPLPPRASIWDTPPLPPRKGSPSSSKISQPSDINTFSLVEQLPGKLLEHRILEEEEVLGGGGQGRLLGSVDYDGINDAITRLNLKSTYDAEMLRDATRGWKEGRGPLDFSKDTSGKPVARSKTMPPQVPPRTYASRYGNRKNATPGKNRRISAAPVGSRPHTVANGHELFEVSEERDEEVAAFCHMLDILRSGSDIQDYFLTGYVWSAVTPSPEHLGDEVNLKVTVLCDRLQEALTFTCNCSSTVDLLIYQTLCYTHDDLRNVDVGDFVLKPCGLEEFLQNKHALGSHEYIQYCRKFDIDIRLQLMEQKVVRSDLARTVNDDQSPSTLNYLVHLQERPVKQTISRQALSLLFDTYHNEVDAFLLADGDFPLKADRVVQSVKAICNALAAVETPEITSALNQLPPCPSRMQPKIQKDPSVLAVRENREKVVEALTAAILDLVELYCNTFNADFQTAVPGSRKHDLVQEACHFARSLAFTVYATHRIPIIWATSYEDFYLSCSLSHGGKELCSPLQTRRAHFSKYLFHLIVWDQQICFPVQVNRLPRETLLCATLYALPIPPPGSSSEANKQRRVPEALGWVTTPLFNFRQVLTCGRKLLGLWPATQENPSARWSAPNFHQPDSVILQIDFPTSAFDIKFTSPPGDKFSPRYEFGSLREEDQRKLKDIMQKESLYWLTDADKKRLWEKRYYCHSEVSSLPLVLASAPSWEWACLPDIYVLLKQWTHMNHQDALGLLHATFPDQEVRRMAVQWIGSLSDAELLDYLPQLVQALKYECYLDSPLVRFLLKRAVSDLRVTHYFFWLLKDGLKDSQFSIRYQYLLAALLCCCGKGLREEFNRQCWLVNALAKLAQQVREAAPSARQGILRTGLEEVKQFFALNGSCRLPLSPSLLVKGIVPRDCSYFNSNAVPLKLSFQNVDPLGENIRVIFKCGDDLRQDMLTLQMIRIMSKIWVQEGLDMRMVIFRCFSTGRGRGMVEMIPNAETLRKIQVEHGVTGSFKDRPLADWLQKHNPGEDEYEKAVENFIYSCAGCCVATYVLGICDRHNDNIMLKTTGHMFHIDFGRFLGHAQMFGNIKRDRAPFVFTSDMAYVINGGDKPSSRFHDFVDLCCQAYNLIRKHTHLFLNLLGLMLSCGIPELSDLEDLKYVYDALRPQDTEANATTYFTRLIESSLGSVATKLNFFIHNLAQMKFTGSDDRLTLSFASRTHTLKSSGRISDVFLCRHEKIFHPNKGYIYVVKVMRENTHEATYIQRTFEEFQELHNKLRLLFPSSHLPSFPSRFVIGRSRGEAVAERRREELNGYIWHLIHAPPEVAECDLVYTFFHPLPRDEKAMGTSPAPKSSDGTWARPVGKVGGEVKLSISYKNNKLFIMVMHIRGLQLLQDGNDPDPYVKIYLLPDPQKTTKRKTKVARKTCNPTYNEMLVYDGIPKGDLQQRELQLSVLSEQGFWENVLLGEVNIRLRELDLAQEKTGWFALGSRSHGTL
Insulin receptor-related protein (Homo sapiens), sequence (P14616 27-742 limits assumed): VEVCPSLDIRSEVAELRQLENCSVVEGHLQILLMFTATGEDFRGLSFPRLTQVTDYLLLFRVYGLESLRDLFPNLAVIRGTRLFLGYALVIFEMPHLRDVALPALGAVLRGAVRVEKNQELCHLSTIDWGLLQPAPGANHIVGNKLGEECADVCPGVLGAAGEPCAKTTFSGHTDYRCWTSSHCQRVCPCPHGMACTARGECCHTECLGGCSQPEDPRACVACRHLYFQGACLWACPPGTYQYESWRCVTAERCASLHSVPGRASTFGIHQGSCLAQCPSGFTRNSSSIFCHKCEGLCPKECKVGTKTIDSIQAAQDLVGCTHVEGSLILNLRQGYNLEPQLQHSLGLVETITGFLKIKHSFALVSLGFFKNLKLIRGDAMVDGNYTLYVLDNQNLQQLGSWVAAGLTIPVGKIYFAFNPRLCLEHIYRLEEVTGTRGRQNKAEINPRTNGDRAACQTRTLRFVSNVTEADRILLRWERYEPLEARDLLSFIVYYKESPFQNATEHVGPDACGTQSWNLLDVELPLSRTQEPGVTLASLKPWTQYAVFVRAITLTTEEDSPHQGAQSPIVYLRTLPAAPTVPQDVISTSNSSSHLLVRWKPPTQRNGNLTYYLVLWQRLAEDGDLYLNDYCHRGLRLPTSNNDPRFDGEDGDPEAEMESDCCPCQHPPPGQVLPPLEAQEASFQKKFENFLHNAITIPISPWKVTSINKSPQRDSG
Insulin receptor-related protein (Homo sapiens), sequence (P14616 747-1297 limits assumed): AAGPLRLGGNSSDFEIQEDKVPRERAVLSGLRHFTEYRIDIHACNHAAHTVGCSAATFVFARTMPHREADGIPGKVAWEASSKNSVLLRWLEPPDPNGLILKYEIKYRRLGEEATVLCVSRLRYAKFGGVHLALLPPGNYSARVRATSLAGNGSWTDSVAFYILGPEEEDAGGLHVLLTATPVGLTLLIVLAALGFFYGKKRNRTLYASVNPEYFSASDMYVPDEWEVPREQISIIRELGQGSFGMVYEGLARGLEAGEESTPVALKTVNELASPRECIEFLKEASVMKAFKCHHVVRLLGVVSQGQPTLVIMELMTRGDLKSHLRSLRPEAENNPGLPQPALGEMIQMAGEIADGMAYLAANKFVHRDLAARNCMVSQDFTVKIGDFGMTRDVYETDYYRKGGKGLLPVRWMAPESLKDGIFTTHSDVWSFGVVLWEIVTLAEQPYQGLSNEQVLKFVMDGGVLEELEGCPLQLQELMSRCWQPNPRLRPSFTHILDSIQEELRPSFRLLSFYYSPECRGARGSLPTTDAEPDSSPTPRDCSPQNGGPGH
Cyclin-dependent kinase 4/cyclin D1, sequence (P11802 whole entry): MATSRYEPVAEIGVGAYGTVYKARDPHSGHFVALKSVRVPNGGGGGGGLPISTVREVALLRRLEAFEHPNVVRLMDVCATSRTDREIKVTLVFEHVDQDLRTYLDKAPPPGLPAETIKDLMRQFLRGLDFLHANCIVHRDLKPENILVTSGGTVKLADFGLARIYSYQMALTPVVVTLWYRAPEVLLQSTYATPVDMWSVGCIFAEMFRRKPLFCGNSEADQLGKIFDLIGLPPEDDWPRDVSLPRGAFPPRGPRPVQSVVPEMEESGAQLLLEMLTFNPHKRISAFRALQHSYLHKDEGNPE
Cyclin-dependent kinase 4/cyclin D1, sequence (P24385 whole entry, further chain): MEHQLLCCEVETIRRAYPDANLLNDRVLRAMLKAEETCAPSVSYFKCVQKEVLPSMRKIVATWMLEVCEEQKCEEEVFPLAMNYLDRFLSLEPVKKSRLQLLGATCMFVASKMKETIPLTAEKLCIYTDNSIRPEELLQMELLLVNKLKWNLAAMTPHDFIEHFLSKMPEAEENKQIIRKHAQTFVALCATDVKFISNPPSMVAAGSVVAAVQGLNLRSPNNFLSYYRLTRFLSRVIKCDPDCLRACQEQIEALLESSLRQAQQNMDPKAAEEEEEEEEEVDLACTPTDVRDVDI
Mitogen-activated protein kinase 14, sequence (Q16539 whole entry): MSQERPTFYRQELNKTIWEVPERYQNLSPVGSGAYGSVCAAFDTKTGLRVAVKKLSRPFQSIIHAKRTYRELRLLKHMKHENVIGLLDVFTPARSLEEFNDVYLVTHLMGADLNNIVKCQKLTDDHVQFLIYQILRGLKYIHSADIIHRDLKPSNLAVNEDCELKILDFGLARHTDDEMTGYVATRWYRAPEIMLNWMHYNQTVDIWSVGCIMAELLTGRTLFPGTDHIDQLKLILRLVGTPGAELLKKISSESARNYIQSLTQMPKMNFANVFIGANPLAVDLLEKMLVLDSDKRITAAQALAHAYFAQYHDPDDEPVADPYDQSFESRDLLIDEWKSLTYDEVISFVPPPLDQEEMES

SMILES: Cn1cc(-n2cnc3c(NCc4nc5cc(Cl)c(Cl)cc5[nH]4)nc(N4CCOCC4)nc32)cn1
- % of control [1]: 8.76%

SMILES: CNC(=O)Nc1ccc(-c2nc(N3CC4CCC(C3)O4)c3cnn(C4CCC5(CC4)OCCO5)c3n2)cc1
- % of control [2]: 25%

SMILES: CC[C@@H]1[C@H](F)C(=O)N[C@@H]1COc1nccc2cc(C(N)=O)c(OC)cc12 [ZIMLOVISERTIB]
- % of inhibition ([3]; at 0.01 µM): 7.8%
- % of inhibition ([3]; at 0.04 µM): 5.4%
- % of inhibition ([3]; at 0.2 µM): 9.3%
- % of inhibition ([3]; at 1 µM): 18.4%
- % of inhibition ([3]; at 5 µM): 34.3%

SMILES: CN(C)C/C=C/C(=O)Nc1ccc(C(=O)N2CCCC(Nc3ncc(Cl)c(-c4c[nH]c5ccccc45)n3)C2)cc1 (stereo not drawn)
- % of control [4]: 50%
- % of control [5]: 100%

SMILES: CCc1cccc(CC)c1NC(=O)c1nn(C)c2c1CCc1cnc(Nc3ccc(C(=O)NC4CCN(C)CC4)cc3OC(F)(F)F)nc1-2
- IC50 [6]: > 10 µM

SMILES: CCC(=O)N1CCN(c2ccc(-n3c(=O)ccc4cnc5ccc(-c6cnc7ccccc7c6)cc5c43)cc2C(F)(F)F)CC1
- % of control [7]: 100%

SMILES: Cc1cc([C@@H](C)Nc2ccccc2C(=O)O)c2nc(N3CCOCC3)cc(=O)n2c1 [AZD-6482]
- IC50 [8]: > 671 µM

SMILES: O[C@H]1CC[C@H](Nc2ncc3nc(Nc4c(F)cc(F)cc4F)n([C@H]4CCOC4)c3n2)CC1
- % of control [9]: 92%
